Measurements published in patent US20220395472A1 (Dermavant Sciences GmbH, priority 2021, published 2022).

System: adults with plaque psoriasis
Assay: Long-term open-label extension study (PSOARING 3): Physician Global Assessment (PGA), treatment episodes, treatment success, remittive effect
Assay type: in vivo, human
Procedure: This extension study consisted of up to 40 weeks of treatment and a 4 week, safety follow up period.
At the completion of the Week 12 visit of the DB, pivotal Phase 3 study, eligibility of the subjects opting to enroll in this extension study was confirmed. Study visits during the treatment period for all subjects occurred every 4 weeks (±3 days). A phone call was performed at Week 2 (Day 15). Unscheduled visits may have occurred, as needed. Subjects who withdrew from this study before Week 40 returned to the study center for an Early Termination visit. The total duration of this extension study participation was 44 weeks. Subjects in this study were treated as follows based on their PGA score from the Week 12 visit in the DB, pivotal Phase 3 study (Study DMVT 505 3001 or Study DMVT 505 3002).
The PGA was used to assess the primary efficacy endpoint in this study. The PGA is a clinical tool for assessing the current state/severity of a subject's psoriasis at a given time point. It is a static, 5 point, morphological assessment of overall disease severity, as determined by the Investigator, using the clinical characteristics of erythema, scaling, and plaque thickness/elevation as guidelines; higher PGA scores represent more severe disease (0=clear, 1=almost clear, 2=mild, 3=moderate, and 4=severe). The BSA affected was not considered in scoring of the PGA. Variations of the PGA are frequently used in clinical studies because it is a simple assessment, similar to those used in clinical practice. The PGA was performed first, prior to the % BSA, PASI, and LTS assessments.
Time to event parameters, such as the time from treatment success to subsequent worsening (PGA≥2) or duration of treatment episode, were summarized by the Kaplan Meier product limit method using OC.

[1] = Week 16, LOCF, Vehicle (Pivotal) group
[2] = Week 16, OC, Vehicle (Pivotal) group
[3] = Week 16 LOCF, Tapinarof (Pivotal)
[4] = Week 16 LOCF, Vehicle (Pivotal)
[5] = Week 16 OC, Tapinarof (Pivotal)

With `CC(C)c1c(O)cc(/C=C/c2ccccc2)cc1O` [Tapinarof, 3,5-Dihydroxy-4-isopropyl-trans-stilbene] the “Total Duration of Treatment Success, Median” value (ITT, Vehicle (Pivotal) group) was 97.0 days, the “tachyphylaxis (decline of clinical effects over time on treatment)” value (PGA, % BSA, PASI over time) was “not observed” and the “Subjects with PGA=1” value (Week 16, LOCF, Tapinarof (Pivotal) group) was 30.4%. The “Subjects with PGA=0” value [1] was 12.7%, the “Subjects with PGA=1” value [1] was 25.8% and the “Subjects with PGA=1” value (Week 16, OC, Tapinarof (Pivotal) group) was 32.2%. The “Subjects with PGA=0” value [2] was 12.9%, the “Subjects with PGA=1” value [2] was 28.2% and the “PGA 0 - Clear” value (Week 16 LOCF, Overall) was 121 (16.2) n (%). The “PGA 1 - Almost Clear” value (Week 16 LOCF, Overall) was 215 (28.9) n (%), the “PGA 2 - Mild” value (Week 16 LOCF, Overall) was 279 (37.4) n (%) and the “PGA 3 - Moderate” value (Week 16 LOCF, Overall) was 119 (16.0) n (%). For the same molecule, the “PGA 4 - Severe” value (Week 16 LOCF, Overall) was 11 (1.5) n (%), the “PGA Change from Baseline: Improved by 1” value (Week 16 LOCF, Overall) was 219 (29.5) n (%) and the “PGA Change from Baseline: Improved by 2” value (Week 16 LOCF, Overall) was 91 (12.3) n (%). The “PGA Change from Baseline: Improved by 3” value (Week 16 LOCF, Overall) was 14 (1.9) n (%), the “PGA Change from Baseline: Improved by 4” value (Week 16 LOCF, Overall) was 2 (0.3) n (%) and the “PGA Change from Baseline: No Change” value (Week 16 LOCF, Overall) was 297 (40.0) n (%). For the same molecule, the “PGA Change from Baseline: Worsened by 1” value (Week 16 LOCF, Overall) was 86 (11.6) n (%), the “PGA Change from Baseline: Worsened by 2” value (Week 16 LOCF, Overall) was 28 (3.8) n (%) and the “PGA Change from Baseline: Worsened by 3” value (Week 16 LOCF, Overall) was 5 (0.7) n (%). For the same molecule, the “PGA Change from Baseline: Worsened by 4” value (Week 16 LOCF, Overall) was 0 (0.0) n (%), the “PGA 1 - Almost Clear” value [3] was 150 (30.4) n (%) and the “PGA 2 - Mild” value [3] was 174 (35.3) n (%). For the same molecule, the “PGA 3 - Moderate” value [3] was 74 (15.0) n (%), the “PGA 4 - Severe” value [3] was 6 (1.2) n (%) and the “PGA Change from Baseline: Improved by 1” value [3] was 122 (24.8) n (%). The “PGA Change from Baseline: Improved by 2” value [3] was 37 (7.5) n (%), the “PGA Change from Baseline: Improved by 3” value [3] was 1 (0.2) n (%) and the “PGA Change from Baseline: Improved by 4” value [3] was 1 (0.2) n (%). The “PGA Change from Baseline: No Change” value [3] was 223 (45.4) n (%), the “PGA Change from Baseline: Worsened by 1” value [3] was 77 (15.7) n (%) and the “PGA Change from Baseline: Worsened by 2” value [3] was 25 (5.1) n (%). For the same molecule, the “PGA Change from Baseline: Worsened by 3” value [3] was 5 (1.0) n (%), the “PGA Change from Baseline: Worsened by 4” value [3] was 0 (0.0) n (%) and the “PGA 0 - Clear” value [4] was 32 (12.7) n (%). The “PGA 1 - Almost Clear” value [4] was 65 (25.8) n (%), the “PGA 3 - Moderate” value [4] was 45 (17.9) n (%) and the “PGA 4 - Severe” value [4] was 5 (2.0) n (%). For the same molecule, the “PGA Change from Baseline: Improved by 1” value [4] was 97 (38.6) n (%), the “PGA Change from Baseline: Improved by 2” value [4] was 54 (21.5) n (%) and the “PGA Change from Baseline: Improved by 3” value [4] was 13 (5.2) n (%). For the same molecule, the “PGA Change from Baseline: Improved by 4” value [4] was 1 (0.4) n (%), the “PGA Change from Baseline: No Change” value [4] was 74 (29.5) n (%) and the “PGA Change from Baseline: Worsened by 1” value [4] was 9 (3.6) n (%). For the same molecule, the “PGA Change from Baseline: Worsened by 2” value [4] was 3 (1.2) n (%), the “PGA Change from Baseline: Worsened by 3” value [4] was 0 (0.0) n (%) and the “PGA Change from Baseline: Worsened by 4” value [4] was 0 (0.0) n (%). For the same molecule, the “PGA 0 - Clear” value (Week 16 OC, Overall) was 107 (17.0) n (%), the “PGA 1 - Almost Clear” value (Week 16 OC, Overall) was 194 (30.9) n (%) and the “PGA 2 - Mild” value (Week 16 OC, Overall) was 236 (37.6) n (%). The “PGA 3 - Moderate” value (Week 16 OC, Overall) was 86 (13.7) n (%), the “PGA 4 - Severe” value (Week 16 OC, Overall) was 5 (0.8) n (%) and the “PGA Change from Baseline: Improved by 1” value (Week 16 OC, Overall) was 190 (30.3) n (%). For the same molecule, the “PGA Change from Baseline: Improved by 2” value (Week 16 OC, Overall) was 77 (12.3) n (%), the “PGA Change from Baseline: Improved by 3” value (Week 16 OC, Overall) was 13 (2.1) n (%) and the “PGA Change from Baseline: Improved by 4” value (Week 16 OC, Overall) was 2 (0.3) n (%). For the same molecule, the “PGA Change from Baseline: No Change” value (Week 16 OC, Overall) was 246 (39.2) n (%), the “PGA Change from Baseline: Worsened by 1” value (Week 16 OC, Overall) was 69 (11.0) n (%) and the “PGA Change from Baseline: Worsened by 2” value (Week 16 OC, Overall) was 25 (4.0) n (%). For the same molecule, the “PGA Change from Baseline: Worsened by 3” value (Week 16 OC, Overall) was 5 (0.8) n (%), the “PGA Change from Baseline: Worsened by 4” value (Week 16 OC, Overall) was 0 (0.0) n (%) and the “PGA 0 - Clear” value [5] was 80 (19.1) n (%). For the same molecule, the “PGA 1 - Almost Clear” value [5] was 135 (32.2) n (%), the “PGA 2 - Mild” value [5] was 146 (34.8) n (%) and the “PGA 3 - Moderate” value [5] was 54 (12.9) n (%). For the same molecule, the “PGA 4 - Severe” value [5] was 4 (1.0) n (%), the “PGA Change from Baseline: Improved by 1” value [5] was 109 (26.1) n (%) and the “PGA Change from Baseline: Improved by 2” value [5] was 29 (6.9) n (%). For the same molecule, the “PGA Change from Baseline: Improved by 3” value [5] was 1 (0.2) n (%), the “PGA Change from Baseline: Improved by 4” value [5] was 1 (0.2) n (%) and the “PGA Change from Baseline: No Change” value [5] was 187 (44.7) n (%). The “PGA Change from Baseline: Worsened by 2” value [5] was 23 (5.5) n (%), the “PGA Change from Baseline: Worsened by 3” value [5] was 5 (1.2) n (%) and the “PGA Change from Baseline: Worsened by 4” value [5] was 0 (0.0) n (%). The “PGA 0 - Clear” value (Week 16 OC, Vehicle (Pivotal)) was 27 (12.9) n (%), the “PGA 1 - Almost Clear” value (Week 16 OC, Vehicle (Pivotal)) was 59 (28.2) n (%) and the “PGA 2 - Mild” value (Week 16 OC, Vehicle (Pivotal)) was 90 (43.1) n (%). For the same molecule, the “PGA 3 - Moderate” value (Week 16 OC, Vehicle (Pivotal)) was 32 (15.3) n (%), the “PGA 4 - Severe” value (Week 16 OC, Vehicle (Pivotal)) was 1 (0.5) n (%) and the “PGA Change from Baseline: Improved by 1” value (Week 16 OC, Vehicle (Pivotal)) was 81 (38.8) n (%). For the same molecule, the “PGA Change from Baseline: Improved by 2” value (Week 16 OC, Vehicle (Pivotal)) was 48 (23.0) n (%) and the “PGA Change from Baseline: Improved by 3” value (Week 16 OC, Vehicle (Pivotal)) was 12 (5.7) n (%).
